In PubChem BioAssay AID212 (DTP/NCI, 2004):
Several values for one entry are separate records, joined by “and”; a condition that tells them apart may be missing. Equal values may be shown once. Records with an inconclusive call do not appear.

Test system: BDF1 mice, colon carcinoma 38 sc, T/C %
Test: NCI In Vivo Anticancer Drug Screen. Data for tumor model Colon Carcinoma 38 (subcutaneous) in B6D2F1 (BDF1) mice
Method in brief: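 Ratio of survival or tumor size, compound-treated animals relative to vehicle controls, in tumor-bearing mice.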

[1] = endpoint: median tumor weight (est.), dose: 12.5 mg/kg/injection, schedule: Q07DX002 (ip), vehicle: saline with Tween-80, higher = larger tumour
[2] = endpoint: median tumor weight (est.), dose: 200.0 mg/kg/injection, schedule: Q07DX002 (ip), vehicle: saline with Tween-80, higher = larger tumour
[3] = endpoint: median tumor weight (est.), dose: 100.0 mg/kg/injection, schedule: Q07DX002 (ip), vehicle: distilled water + alcohol, higher = larger tumour
[4] = endpoint: median tumor weight (est.), dose: 200.0 mg/kg/injection, schedule: Q07DX002 (ip), vehicle: distilled water + alcohol, higher = larger tumour
[5] = endpoint: median tumor weight (est.), dose: 400.0 mg/kg/injection, schedule: Q07DX002 (ip), vehicle: distilled water + alcohol, higher = larger tumour
[6] = endpoint: median tumor weight (est.), dose: 800.0 mg/kg/injection, schedule: Q07DX002 (ip), vehicle: distilled water + alcohol, higher = larger tumour

For `BrCC[Se]c1ccccc1`, the T/C (endpoint: median tumor weight (est.), dose: 6.25 mg/kg/injection, schedule: Q07DX002 (ip), vehicle: saline with Tween-80, higher = larger tumour) was 158 % of control and 177 % of control, the T/C [1] was 100 % of control and 104 % of control and the T/C (endpoint: median tumor weight (est.), dose: 50.0 mg/kg/injection, schedule: Q07DX002 (ip), vehicle: saline with Tween-80, higher = larger tumour) was 107 % of control. The T/C [2] was 178 % of control.
For `Cc1cc(=NO)cc(C)n1O`, the T/C (endpoint: median tumor weight (est.), dose: 50.0 mg/kg/injection, schedule: Q07DX002 (ip), vehicle: distilled water + alcohol, higher = larger tumour) was 80 % of control, the T/C [3] was 80 % of control and the T/C [4] was 98 % of control. The T/C [5] was 106 % of control and the T/C [6] was 86 % of control.
For `O=C1C(NCC(O)CO)=C(N2CC2)C(=O)C(NCC(O)CO)=C1N1CC1` (configuration not stated), the T/C (endpoint: median tumor weight (est.), dose: 2.0 mg/kg/injection, schedule: Q07DX002 (ip), vehicle: saline, higher = larger tumour) was 105 % of control, the T/C (endpoint: median tumor weight (est.), dose: 4.0 mg/kg/injection, schedule: Q07DX002 (ip), vehicle: saline, higher = larger tumour) was 60 % of control and the T/C (endpoint: median tumor weight (est.), dose: 4.0 mg/kg/injection, schedule: Q07DX002 (ip), vehicle: suspension in saline, higher = larger tumour) was 66 % of control. For the same molecule, the T/C (endpoint: median tumor weight (est.), dose: 8.0 mg/kg/injection, schedule: Q07DX002 (ip), vehicle: saline, higher = larger tumour) was 77 % of control, the T/C (endpoint: median tumor weight (est.), dose: 8.0 mg/kg/injection, schedule: Q07DX002 (ip), vehicle: suspension in saline, higher = larger tumour) was 100 % of control and the T/C (endpoint: median tumor weight (est.), dose: 16.0 mg/kg/injection, schedule: Q07DX002 (ip), vehicle: saline, higher = larger tumour) was 12 % of control. The T/C (endpoint: median tumor weight (est.), dose: 16.0 mg/kg/injection, schedule: Q07DX002 (ip), vehicle: suspension in saline, higher = larger tumour) was 69 % of control.
`CC[C@@]1(O)C[C@H](OC2CC(N(C)C)C(OC3CC(O)C(OC4CCC(=O)C(C)O4)C(C)O3)C(C)O2)c2c(cc3c(c2O)C(=O)c2c(O)cccc2C3=O)[C@H]1C(=O)OC` (some centres not stated) was tested, and the T/C (endpoint: median survival time, dose: 5.3 mg/kg/injection, schedule: Q07DX002 (iv), vehicle: water, higher = longer survival) was 114 % of control, the T/C (endpoint: median survival time, dose: 8.3 mg/kg/injection, schedule: Q07DX002 (iv), vehicle: water, higher = longer survival) was 105 % of control and the T/C (endpoint: median survival time, dose: 20.0 mg/kg/injection, schedule: Q07DX002 (iv), vehicle: water, higher = longer survival) was 115 % of control. The T/C (endpoint: median tumor weight (est.), dose: 0.75 mg/kg/injection, schedule: Q07DX002 (ip), vehicle: water, higher = larger tumour) was 67 % of control, the T/C (endpoint: median tumor weight (est.), dose: 0.75 mg/kg/injection, schedule: Q07DX003 (ip), vehicle: water, higher = larger tumour) was 98 % of control and the T/C (endpoint: median tumor weight (est.), dose: 1.5 mg/kg/injection, schedule: Q07DX003 (ip), vehicle: water, higher = larger tumour) was 123 % of control. The T/C (endpoint: median tumor weight (est.), dose: 3.0 mg/kg/injection, schedule: Q07DX003 (ip), vehicle: water, higher = larger tumour) was 103 % of control, the T/C (endpoint: median tumor weight (est.), dose: 6.0 mg/kg/injection, schedule: Q07DX003 (ip), vehicle: water, higher = larger tumour) was 75 % of control and the T/C (endpoint: median tumor weight (est.), dose: 12.0 mg/kg/injection, schedule: Q07DX003 (ip), vehicle: water, higher = larger tumour) was 40 % of control.
With `N=C(N)SCc1cccc2c(=O)cc(-c3ccccc3)oc12` the T/C (endpoint: median tumor weight (est.), dose: 800.0 mg/kg/injection, schedule: Q07DX002 (ip), vehicle: saline, higher = larger tumour) was 52 % of control and 69 % of control.
For `COC1CC(C)C(OC)c2cc(O)cc(c2O)NC(=O)/C(C)=C/C=C\C(C)C(OC(N)=O)/C(C)=C\C(C)C1OC` (configuration not stated), the T/C (endpoint: median tumor weight (est.), dose: 3.13 mg/kg/injection, schedule: Q07DX002 (ip), vehicle: saline + alcohol, higher = larger tumour) was 114 % of control, the T/C (endpoint: median tumor weight (est.), dose: 12.5 mg/kg/injection, schedule: Q07DX002 (ip), vehicle: saline + alcohol, higher = larger tumour) was 69 % of control and the T/C (endpoint: median tumor weight (est.), dose: 25.0 mg/kg/injection, schedule: Q07DX002 (ip), vehicle: saline + alcohol, higher = larger tumour) was 94 % of control.
With `COc1cccc2c1C(=O)c1c(O)c3c(c(O)c1C2=O)C[C@@](O)(C(=O)CO)C[C@@H]3OC1CC(OC(C)=O)C(OC(C)=O)C(C)O1` (some centres not stated) the T/C (endpoint: median tumor weight (est.), dose: 3.12 mg/kg/injection, schedule: Q07DX002 (ip), vehicle: distilled water + Tween-80, higher = larger tumour) was 89 % of control, the T/C (endpoint: median tumor weight (est.), dose: 6.25 mg/kg/injection, schedule: Q07DX002 (ip), vehicle: distilled water + Tween-80, higher = larger tumour) was 88 % of control and the T/C (endpoint: median tumor weight (est.), dose: 12.5 mg/kg/injection, schedule: Q07DX002 (ip), vehicle: distilled water + Tween-80, higher = larger tumour) was 65 % of control. The T/C (endpoint: median tumor weight (est.), dose: 25.0 mg/kg/injection, schedule: Q07DX002 (ip), vehicle: distilled water + Tween-80, higher = larger tumour) was 90 % of control and the T/C (endpoint: median tumor weight (est.), dose: 50.0 mg/kg/injection, schedule: Q07DX002 (ip), vehicle: distilled water + Tween-80, higher = larger tumour) was 62 % of control.
With `NCCCC(N)(C(=O)O)C(F)F` (configuration not stated) the T/C [3] was 124 % of control, the T/C [4] was 107 % of control and the T/C [5] was 113 % of control and 124 % of control. The T/C [6] was 124 % of control and the T/C (endpoint: median tumor weight (est.), dose: 1600.0 mg/kg/injection, schedule: Q07DX002 (ip), vehicle: distilled water + alcohol, higher = larger tumour) was 123 % of control and 100 % of control.
`C=C(C)[C@]12CC(C)C34OC(/C=C\C=C\CCCCCCCCC)(O[C@@H]1[C@@H]3[C@@H]1O[C@]1(CO)[C@@H](O)[C@]1(O)C(=O)C(C)=C[C@@H]41)O2` (some centres not stated) was tested, and the T/C (endpoint: median tumor weight (est.), dose: 0.18 mg/kg/injection, schedule: Q07DX002 (ip), vehicle: distilled water + alcohol, higher = larger tumour) was 109 % of control, the T/C (endpoint: median tumor weight (est.), dose: 0.37 mg/kg/injection, schedule: Q07DX002 (ip), vehicle: distilled water + alcohol, higher = larger tumour) was 76 % of control and the T/C (endpoint: median tumor weight (est.), dose: 0.75 mg/kg/injection, schedule: Q07DX002 (ip), vehicle: distilled water + alcohol, higher = larger tumour) was 105 % of control. For the same molecule, the T/C (endpoint: median tumor weight (est.), dose: 1.5 mg/kg/injection, schedule: Q07DX002 (ip), vehicle: distilled water + alcohol, higher = larger tumour) was 75 % of control.
With `CC1CCC(NC(=O)N(CCCl)N=O)CC1` (configuration not stated) the T/C (endpoint: median survival time, dose: 3.3 mg/kg/injection, schedule: Q01DX010 (oral), vehicle: saline with Tween-80, higher = longer survival) was 115 % of control, the T/C (endpoint: median survival time, dose: 5.0 mg/kg/injection, schedule: Q04DX005 (ip), vehicle: other, higher = longer survival) was 93 % of control and the T/C (endpoint: median survival time, dose: 5.5 mg/kg/injection, schedule: Q01DX010 (oral), vehicle: saline with Tween-80, higher = longer survival) was 99 % of control. The T/C (endpoint: median survival time, dose: 9.0 mg/kg/injection, schedule: Q01DX010 (oral), vehicle: saline with Tween-80, higher = longer survival) was 100 % of control, the T/C (endpoint: median survival time, dose: 10.0 mg/kg/injection, schedule: Q04DX005 (ip), vehicle: other, higher = longer survival) was 122 % of control and the T/C (endpoint: median survival time, dose: 20.0 mg/kg/injection, schedule: Q04DX005 (ip), vehicle: other, higher = longer survival) was 153 % of control. For the same molecule, the T/C (endpoint: median tumor weight (est.), dose: 4.0 mg/kg/injection, schedule: Q07DX002 (ip), vehicle: Klucel (hydroxypropylcellulose) (HPC), higher = larger tumour) was 61 % of control, the T/C (endpoint: median tumor weight (est.), dose: 8.0 mg/kg/injection, schedule: Q07DX002 (ip), vehicle: Klucel (hydroxypropylcellulose) (HPC), higher = larger tumour) was 53 % of control and the T/C (endpoint: median tumor weight (est.), dose: 16.0 mg/kg/injection, schedule: Q07DX002 (ip), vehicle: Klucel (hydroxypropylcellulose) (HPC), higher = larger tumour) was 64 % of control. The T/C (endpoint: median tumor weight (est.), dose: 32.0 mg/kg/injection, schedule: Q07DX002 (ip), vehicle: Klucel (hydroxypropylcellulose) (HPC), higher = larger tumour) was 18 % of control.
In the case of `CCCC(=O)O.CCCC(=O)O.CCCC(=O)O.CCCC(=O)O.[Rh].[Rh]`, the T/C (endpoint: median tumor weight (est.), dose: 0.25 mg/kg/injection, schedule: Q07DX002 (ip), vehicle: saline + alcohol, higher = larger tumour) was 87 % of control, the T/C (endpoint: median tumor weight (est.), dose: 0.5 mg/kg/injection, schedule: Q07DX002 (ip), vehicle: saline + alcohol, higher = larger tumour) was 76 % of control and the T/C (endpoint: median tumor weight (est.), dose: 1.0 mg/kg/injection, schedule: Q07DX002 (ip), vehicle: saline + alcohol, higher = larger tumour) was 91 % of control.
With `COc1ccc(C(N)=O)cc1N=NN(C)C` the T/C (endpoint: median tumor weight (est.), dose: 6.25 mg/kg/injection, schedule: Q07DX003 (ip), vehicle: Klucel (hydroxypropylcellulose) (HPC), higher = larger tumour) was 97 % of control, the T/C (endpoint: median tumor weight (est.), dose: 12.5 mg/kg/injection, schedule: Q07DX003 (ip), vehicle: Klucel (hydroxypropylcellulose) (HPC), higher = larger tumour) was 111 % of control and the T/C (endpoint: median tumor weight (est.), dose: 25.0 mg/kg/injection, schedule: Q07DX003 (ip), vehicle: Klucel (hydroxypropylcellulose) (HPC), higher = larger tumour) was 89 % of control. The T/C (endpoint: median tumor weight (est.), dose: 50.0 mg/kg/injection, schedule: Q07DX003 (ip), vehicle: Klucel (hydroxypropylcellulose) (HPC), higher = larger tumour) was 66 % of control and the T/C (endpoint: median tumor weight (est.), dose: 100.0 mg/kg/injection, schedule: Q07DX003 (ip), vehicle: Klucel (hydroxypropylcellulose) (HPC), higher = larger tumour) was 15 % of control.
With `BrC1CC(Br)c2c1c1c(c3c2C(Br)CC3Br)C(Br)CC1Br` (configuration not stated) the T/C [1] was 157 % of control, the T/C (endpoint: median tumor weight (est.), dose: 25.0 mg/kg/injection, schedule: Q07DX002 (ip), vehicle: saline with Tween-80, higher = larger tumour) was 94 % of control and 103 % of control and the T/C [2] was 80 % of control and 86 % of control. The T/C (endpoint: median tumor weight (est.), dose: 400.0 mg/kg/injection, schedule: Q07DX002 (ip), vehicle: saline with Tween-80, higher = larger tumour) was 81 % of control and 105 % of control.
For `CCOC(=O)c1c[nH]c2oc(/C=N/N3CC(CN4CCOCC4)OC3=O)cc2c1=O` (configuration not stated), the T/C (endpoint: median tumor weight (est.), dose: 25.0 mg/kg/injection, schedule: Q07DX003 (ip), vehicle: saline, higher = larger tumour) was 116 % of control and 120 % of control, the T/C (endpoint: median tumor weight (est.), dose: 100.0 mg/kg/injection, schedule: Q07DX003 (ip), vehicle: saline, higher = larger tumour) was 93 % of control and 102 % of control and the T/C (endpoint: median tumor weight (est.), dose: 150.0 mg/kg/injection, schedule: Q07DX002 (ip), vehicle: other, higher = larger tumour) was 92 % of control. The T/C (endpoint: median tumor weight (est.), dose: 200.0 mg/kg/injection, schedule: Q07DX003 (ip), vehicle: saline, higher = larger tumour) was 108 % of control and 106 % of control, the T/C (endpoint: median tumor weight (est.), dose: 300.0 mg/kg/injection, schedule: Q07DX002 (ip), vehicle: other, higher = larger tumour) was 59 % of control and the T/C (endpoint: median tumor weight (est.), dose: 600.0 mg/kg/injection, schedule: Q07DX002 (ip), vehicle: other, higher = larger tumour) was 59 % of control. For the same molecule, the T/C (endpoint: median tumor weight (est.), dose: 900.0 mg/kg/injection, schedule: Q07DX002 (ip), vehicle: other, higher = larger tumour) was 34 % of control.
